Data taken from ChEMBL document CHEMBL1201862, “PubChem BioAssay data set” (2004).
“And” between values parts separate entries of the source, which are not always exact repeats. Equal values may be shown once.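 Dose response: 5 concentrations. Exposure: 48 h. Format: 96-well plates. Endpoint: linear interpolation; highest concentration if not reached. The concentration for 50% growth inhibition is given as GI50.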 The source made the active and inactive calls. No stated cut-off is given here; in the data, active = GI50 up to about 1.1 µM and inactive = higher.

Tests used:
Assay in all cases: NCI tumour cell line growth inhibition, 48 h
RXF 393 = system: RXF 393
786-0 = system: 786-0
HT-29 = system: HT-29
OVCAR-3 = system: OVCAR-3
TK-10 = system: TK-10
HCC 2998 = system: HCC 2998
SW-620 = system: SW-620
ACHN = system: ACHN
NCI-H522 = system: NCI-H522
KM12 = system: KM12
EKVX = system: EKVX
OVCAR-4 = system: OVCAR-4
HL-60 = system: HL-60
OVCAR-8 = system: OVCAR-8
SNB-19 = system: SNB-19
HOP-92 = system: HOP-92
SK-MEL-5 = system: SK-MEL-5
SF-268 = system: SF-268
UO-31 = system: UO-31
UACC-62 = system: UACC-62

Measured: GI50

OC(CBr)C(O)C(O)C(O)CBr (centres undefined)
inactive: RXF 393 > 100 µM and > 88.9 µM | 786-0 13.7 µM | HT-29 > 100 µM and > 56 µM | OVCAR-3 > 55.1 µM | TK-10 > 100 µM | HCC 2998 > 100 µM and > 72.8 µM | SW-620 > 87.7 µM | ACHN 8.09 µM | NCI-H522 > 67.1 µM and > 48.6 µM | KM12 > 100 µM and > 60 µM | EKVX > 75.7 µM | OVCAR-4 > 100 µM and > 81.5 µM | HL-60 8.73 µM and 13.3 µM | OVCAR-8 > 100 µM and 59.4 µM

COc1ccc2c(c1)CCCN2CCCCCCCCCCN(CCC(C)C)CCC(C)C
inactive: 786-0 14.2 µM | HT-29 4.65 µM | OVCAR-3 4.79 µM | SNB-19 13.9 µM | HOP-92 4.34 µM | SK-MEL-5 6.46 µM | TK-10 16.4 µM | SF-268 11.6 µM | HCC 2998 6.98 µM | SW-620 12.6 µM | ACHN 10.9 µM | NCI-H522 2.2 µM | KM12 4.55 µM | EKVX 6.44 µM | UO-31 3.11 µM | OVCAR-4 5.61 µM | HL-60 2.9 µM | UACC-62 12.2 µM

O=S(OC12CC3CC(CC(C3)C1)C2)c1cc(Cl)cc(Cl)c1OCc1ccccc1 (centres undefined)
inactive: RXF 393 > 100 µM | HT-29 > 100 µM | OVCAR-3 > 100 µM | SNB-19 > 100 µM | TK-10 > 100 µM | SF-268 > 100 µM | HCC 2998 > 100 µM | ACHN > 100 µM | NCI-H522 19 µM | KM12 > 100 µM | EKVX > 100 µM | UO-31 > 100 µM | OVCAR-4 > 100 µM | HL-60 > 100 µM | UACC-62 > 100 µM

O=C(Nc1ccc(/N=N/c2ccccc2)cc1)Sc1ccccc1C(=O)O
inactive: RXF 393 71.3 µM | 786-0 > 100 µM | HT-29 > 100 µM | OVCAR-3 > 100 µM | SNB-19 > 100 µM | TK-10 > 100 µM | SF-268 > 100 µM | HCC 2998 > 100 µM | SW-620 > 100 µM | ACHN > 100 µM | NCI-H522 > 100 µM | KM12 > 100 µM | EKVX > 100 µM | UO-31 > 100 µM | OVCAR-4 > 100 µM | HL-60 1.7 µM | OVCAR-8 > 100 µM | UACC-62 > 100 µM

CC(C)C(=O)OCN(C)c1nc(N(C)COC(=O)C(C)C)nc(N(C)COC(=O)C(C)C)n1
inactive: 786-0 28.5 µM | HT-29 25.2 µM | OVCAR-3 36.6 µM | SNB-19 42.1 µM | SK-MEL-5 15.1 µM | TK-10 85.7 µM | SF-268 > 10 µM | SW-620 21.6 µM | ACHN 32 µM | NCI-H522 18.3 µM | KM12 24.2 µM | EKVX > 100 µM | UO-31 22.2 µM | OVCAR-4 23.8 µM | HL-60 22.3 µM | OVCAR-8 19.8 µM

COC1CC(OC2CCC3(C)C(=CCC4C3C(OC(C)=O)C(OC(=O)CC(C)C)C3(C)C(C(C)=O)CCC43O)C2)OC(C)C1OC1CC(OC)C(OC2CC(OC)C(OC3OC(C)C(OC4OC(CO)C(O)C(O)C4O)C(OC)C3O)C(C)O2)C(C)O1 (centres undefined)
inactive: 786-0 > 75 µM | HT-29 > 75 µM | OVCAR-3 > 75 µM | SNB-19 > 75 µM | HOP-92 > 75 µM | SK-MEL-5 > 75 µM | TK-10 > 75 µM | SF-268 > 75 µM | HCC 2998 > 75 µM | SW-620 > 75 µM | ACHN > 75 µM | NCI-H522 > 75 µM | KM12 > 75 µM | EKVX > 75 µM | UO-31 > 75 µM | OVCAR-4 > 75 µM | HL-60 > 75 µM | OVCAR-8 > 75 µM | UACC-62 > 75 µM

O=CN1CCN(c2ccc3ccc(O)nc3n2)CC1
inactive: 786-0 > 100 µM | HT-29 > 100 µM | OVCAR-3 > 100 µM | SNB-19 > 100 µM | HOP-92 > 100 µM | TK-10 > 100 µM | SF-268 69.8 µM | HCC 2998 > 100 µM | SW-620 > 100 µM | ACHN > 100 µM | NCI-H522 51.8 µM | KM12 > 100 µM | EKVX > 100 µM | UO-31 > 100 µM | OVCAR-4 > 100 µM | HL-60 > 100 µM | OVCAR-8 > 100 µM | UACC-62 > 100 µM

CC(=O)NC1CC2Oc3ccc(C)cc3C(C)(O2)C1O (centres undefined)
inactive: RXF 393 > 100 µM | 786-0 > 100 µM | HT-29 > 100 µM | OVCAR-3 > 100 µM | SNB-19 > 100 µM | TK-10 > 100 µM | SW-620 > 100 µM | ACHN > 100 µM | NCI-H522 > 100 µM | KM12 > 100 µM | EKVX > 100 µM | UO-31 > 100 µM | HL-60 > 100 µM | OVCAR-8 > 100 µM | UACC-62 > 100 µM

O=C(Nc1ccc(F)cc1)c1cc2c(cc1Cl)Sc1nccn1S2(=O)=O
inactive: RXF 393 31.7 µM | 786-0 28.2 µM | HT-29 > 100 µM | OVCAR-3 84.5 µM | SNB-19 40.1 µM | SK-MEL-5 14.9 µM | SF-268 37.3 µM | HCC 2998 > 100 µM | SW-620 > 100 µM | ACHN 63.1 µM | NCI-H522 76.9 µM | KM12 > 100 µM | EKVX > 100 µM | OVCAR-4 55.7 µM | OVCAR-8 85.9 µM

COc1ccc(/C(Cl)=C(\C=O)c2ccc(Cl)c(Cl)c2)cc1
inactive: HT-29 4.37 µM | OVCAR-3 17.9 µM | SNB-19 16.2 µM | HOP-92 6.07 µM | SK-MEL-5 13 µM | TK-10 18 µM | SF-268 5.3 µM | SW-620 4.53 µM | ACHN 7.26 µM | NCI-H522 2.51 µM | EKVX 17.1 µM | UO-31 12.8 µM | HL-60 4.12 µM | OVCAR-8 5.57 µM | UACC-62 8.2 µM

CCN(CC)CC1CCCCCCCCCCC1=O (centres undefined)
inactive: 786-0 > 100 µM | HT-29 > 100 µM | OVCAR-3 > 100 µM | SNB-19 > 100 µM | SK-MEL-5 > 100 µM | TK-10 > 100 µM | SF-268 > 100 µM | HCC 2998 > 100 µM | SW-620 > 100 µM | ACHN > 100 µM | NCI-H522 > 100 µM | KM12 > 100 µM | EKVX > 100 µM | UO-31 > 100 µM | OVCAR-4 > 100 µM | HL-60 > 100 µM | OVCAR-8 > 100 µM | UACC-62 > 100 µM

O=C(O)CSC(CC1(c2ccc(Cl)cc2)NC(=O)CS1)c1ccc(Cl)cc1 (centres undefined)
inactive: 786-0 > 100 µM | HT-29 > 100 µM | OVCAR-3 45.6 µM | SNB-19 > 100 µM | HOP-92 22.8 µM | SK-MEL-5 > 100 µM | TK-10 > 100 µM | SF-268 > 100 µM | SW-620 > 100 µM | ACHN > 100 µM | NCI-H522 46.2 µM | KM12 > 100 µM | EKVX > 100 µM | UO-31 > 100 µM | OVCAR-4 > 100 µM | HL-60 > 100 µM | OVCAR-8 > 100 µM | UACC-62 85.1 µM
